Assay results taken from article PMC6526117 (Experimental Neurobiology, 2019).
Where a chain is given by its changes, count along the chain named.

Tests used:
Assay in all cases: whole-cell patch clamp, SCAM block of ICl,swell
Assay type in all cases: cell-based
Settings in all cases: read-out: % block
[1] = target: T1, TTYH1 (Mus musculus, UniProt Q9D3A9, V164C)
T1 sequence (Q9D3A9 1-450 V164C): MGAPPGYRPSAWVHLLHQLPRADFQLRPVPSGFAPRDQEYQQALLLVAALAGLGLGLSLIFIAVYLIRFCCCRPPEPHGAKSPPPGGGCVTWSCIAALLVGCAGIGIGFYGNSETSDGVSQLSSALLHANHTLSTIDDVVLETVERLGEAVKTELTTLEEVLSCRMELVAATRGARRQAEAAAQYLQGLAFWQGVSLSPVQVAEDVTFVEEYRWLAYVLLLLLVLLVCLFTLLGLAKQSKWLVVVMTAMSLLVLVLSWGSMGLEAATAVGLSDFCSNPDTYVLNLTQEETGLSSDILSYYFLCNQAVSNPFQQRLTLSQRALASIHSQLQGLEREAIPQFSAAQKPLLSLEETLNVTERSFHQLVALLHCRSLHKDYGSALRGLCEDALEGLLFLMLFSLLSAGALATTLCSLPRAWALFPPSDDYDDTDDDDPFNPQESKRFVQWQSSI

[2] = target: T2, TTYH1 (Mus musculus, UniProt Q9D3A9, R165C)
T2 sequence (Q9D3A9 1-450 R165C): T1 sequence (Q9D3A9 1-450 V164C) with C164V, R165C

[3] = target: T3, TTYH1 (Mus musculus, UniProt Q9D3A9)
T3 sequence (Q9D3A9 1-450): T1 sequence (Q9D3A9 1-450 V164C) with C164V

inhibition at 100000 µM [1]: 28.9% | inhibition at 100000 µM [2]: 36.6% | inhibition at 100000 µM [3]: 9.01%
Compound: CS(=O)(=O)SCCS(=O)(=O)O [MTSES]
